How the values were obtained:
[1] = biological target: Human recombinant S1PR3 lysophospholipid receptor membrane (Homo sapiens, UniProt Q99500); test: [^32P]S1P competitive binding assay, S1PR3
[2] = biological target: T1, human recombinant S1PR4 lysophospholipid receptor membrane (Homo sapiens, UniProt O95977); test: [^32P]S1P competitive binding assay, S1PR4
T1 sequence (O95977 1-384): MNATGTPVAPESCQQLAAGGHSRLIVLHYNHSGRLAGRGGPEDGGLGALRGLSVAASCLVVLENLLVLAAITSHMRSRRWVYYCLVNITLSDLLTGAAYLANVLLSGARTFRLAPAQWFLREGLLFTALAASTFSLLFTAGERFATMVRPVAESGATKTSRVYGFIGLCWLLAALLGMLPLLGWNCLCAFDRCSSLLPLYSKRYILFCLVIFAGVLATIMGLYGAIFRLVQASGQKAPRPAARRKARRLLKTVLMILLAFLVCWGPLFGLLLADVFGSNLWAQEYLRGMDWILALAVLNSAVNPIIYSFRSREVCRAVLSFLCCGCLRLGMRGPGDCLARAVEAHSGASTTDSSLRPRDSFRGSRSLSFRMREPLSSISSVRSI

[3] = biological target: Human recombinant S1PR1 lysophospholipid receptor membrane (Homo sapiens, UniProt P21453); test: [^32P]S1P competitive binding assay, S1PR1
[4] = biological target: Human recombinant S1PR5 lysophospholipid receptor membrane (Homo sapiens, UniProt Q9H228); test: [^32P]S1P competitive binding assay, S1PR5
Sequence of Human recombinant S1PR5 lysophospholipid receptor membrane (Q9H228 whole entry): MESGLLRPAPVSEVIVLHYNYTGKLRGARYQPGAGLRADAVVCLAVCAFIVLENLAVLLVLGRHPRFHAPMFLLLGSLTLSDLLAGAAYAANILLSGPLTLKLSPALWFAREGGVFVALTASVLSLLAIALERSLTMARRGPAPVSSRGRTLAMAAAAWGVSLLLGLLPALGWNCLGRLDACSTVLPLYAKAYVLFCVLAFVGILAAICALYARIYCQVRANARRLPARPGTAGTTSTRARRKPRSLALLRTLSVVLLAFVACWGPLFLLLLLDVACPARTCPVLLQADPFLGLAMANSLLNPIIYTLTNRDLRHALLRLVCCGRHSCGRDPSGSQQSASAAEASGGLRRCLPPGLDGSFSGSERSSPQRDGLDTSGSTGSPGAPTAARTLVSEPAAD

Sequence of Human recombinant S1PR1 lysophospholipid receptor membrane (P21453 whole entry): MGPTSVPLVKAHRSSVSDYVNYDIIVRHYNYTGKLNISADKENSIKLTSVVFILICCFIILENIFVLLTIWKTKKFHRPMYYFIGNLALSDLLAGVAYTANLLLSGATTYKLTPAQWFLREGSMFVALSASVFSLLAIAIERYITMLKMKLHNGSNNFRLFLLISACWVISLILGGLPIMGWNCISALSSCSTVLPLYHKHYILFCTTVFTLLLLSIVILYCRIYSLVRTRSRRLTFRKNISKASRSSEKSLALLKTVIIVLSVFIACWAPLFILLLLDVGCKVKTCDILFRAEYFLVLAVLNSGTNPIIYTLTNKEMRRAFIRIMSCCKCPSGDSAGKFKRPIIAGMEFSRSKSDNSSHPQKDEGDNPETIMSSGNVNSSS
Sequence of Human recombinant S1PR3 lysophospholipid receptor membrane (Q99500 whole entry): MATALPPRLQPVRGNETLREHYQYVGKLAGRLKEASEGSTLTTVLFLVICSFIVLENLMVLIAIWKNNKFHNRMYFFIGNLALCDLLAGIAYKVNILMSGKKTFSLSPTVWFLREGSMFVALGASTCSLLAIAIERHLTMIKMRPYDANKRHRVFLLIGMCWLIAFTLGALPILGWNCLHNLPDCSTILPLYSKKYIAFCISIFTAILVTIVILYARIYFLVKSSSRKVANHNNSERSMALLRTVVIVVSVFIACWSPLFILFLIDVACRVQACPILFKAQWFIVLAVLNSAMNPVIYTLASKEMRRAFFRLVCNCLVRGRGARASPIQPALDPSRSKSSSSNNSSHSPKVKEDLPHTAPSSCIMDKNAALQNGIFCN

IC50 [1]: > 1000 nM
IC50 [2]: > 1000 nM
IC50 [3]: > 1000 nM
IC50 [4]: > 1000 nM
SMILES: COc1ccc(NC(=O)Cn2c(=O)c3ccccc3n(CC(=O)Nc3cc(I)c(OC)cc3OC)c2=O)cc1 [TZ6544, N-(5-iodo-2,4-dimethoxyphenyl)-2-(3-(2-((4-methoxyphenyl)amino)-2-oxoethyl)-2,4-dioxo-3,4-dihydroquinazolin-1(2H)-yl)acetamide]

Reference: article PMC8972069 (Nuclear medicine and biology, 2020)
